# Laboratory results published in patent US10770169B2, “Method of providing a treatment to a subject based on a dynamic pathway map” (THE REGENTS OF THE UNIVERSITY OF CALIFORNIA, priority 2010, dated 2020).
# Like-named read-outs stand apart in the source and are kept apart here.
# Test system: panel of 55 breast cancer cell lines
# Test: Cell growth inhibition assay (Cell Titer Glo, 72 h, 9 doses; GI50, TGI, LC50)
# Type: cell-based, human
smiles,measurement,setting,value
O=c1[nH]c(=O)n([C@H]2C[C@H](O)[C@@H](CO)O2)cc1F [5-FdUR],GI50,"AU565 cell line, censored GI50 values, value is the negative log10 of mol/L",4.97
same,GI50,"BT20 cell line, censored GI50 values, value is the negative log10 of mol/L",3.49
same,GI50,"BT474 cell line, censored GI50 values, value is the negative log10 of mol/L",3.29
same,GI50,"BT483 cell line, censored GI50 values, value is the negative log10 of mol/L",4.13
same,GI50,"CAMA1 cell line, censored GI50 values, value is the negative log10 of mol/L",3.92
same,GI50,"HCC38 cell line, censored GI50 values, value is the negative log10 of mol/L",4.00
same,GI50,"HCC70 cell line, censored GI50 values, value is the negative log10 of mol/L",3.67
same,GI50,"HCC1143 cell line, censored GI50 values, value is the negative log10 of mol/L",4.02
same,GI50,"HCC1187 cell line, censored GI50 values, value is the negative log10 of mol/L",3.81
same,GI50,"HCC1395 cell line, censored GI50 values, value is the negative log10 of mol/L",3.60
same,GI50,"HCC1419 cell line, censored GI50 values",2.73
same,GI50,"HCC1428 cell line, censored GI50 values, value is the negative log10 of mol/L",3.91
same,GI50,"HCC1500 cell line, censored GI50 values, value is the negative log10 of mol/L",4.21
same,GI50,"HCC1806 cell line, censored GI50 values, value is the negative log10 of mol/L",4.02
same,GI50,"HCC1937 cell line, censored GI50 values, value is the negative log10 of mol/L",3.37
same,GI50,"HCC1954 cell line, censored GI50 values, value is the negative log10 of mol/L",3.99
same,GI50,"HCC2185 cell line, censored GI50 values, value is the negative log10 of mol/L",3.12
same,GI50,"HCC3153 cell line, censored GI50 values, value is the negative log10 of mol/L",3.24
same,GI50,"LY2 cell line, censored GI50 values, value is the negative log10 of mol/L",5.01
same,GI50,"MDAMB134VI cell line, censored GI50 values, value is the negative log10 of mol/L",3.15
same,GI50,"MDAMB175VII cell line, censored GI50 values, value is the negative log10 of mol/L",4.69
same,GI50,"MDAMB231 cell line, censored GI50 values, value is the negative log10 of mol/L",3.10
same,GI50,"MDAMB468 cell line, censored GI50 values, value is the negative log10 of mol/L",3.22
same,GI50,"SKBR3 cell line, censored GI50 values, value is the negative log10 of mol/L",3.66
same,GI50,"SUM52PE cell line, censored GI50 values, value is the negative log10 of mol/L",3.49
same,GI50,"SUM149PT cell line, censored GI50 values, value is the negative log10 of mol/L",4.11
same,GI50,"SUM159PT cell line, censored GI50 values, value is the negative log10 of mol/L",4.49
same,GI50,"SUM225CWN cell line, censored GI50 values, value is the negative log10 of mol/L",3.71
same,GI50,"SUM1315MO2 cell line, censored GI50 values, value is the negative log10 of mol/L",3.13
same,GI50,"T47D cell line, censored GI50 values, value is the negative log10 of mol/L",3.48
same,GI50,"UACC812 cell line, censored GI50 values, value is the negative log10 of mol/L",4.34
same,GI50,"ZR75B cell line, censored GI50 values, value is the negative log10 of mol/L",5.16
same,GI50,"ZR751 cell line, censored GI50 values, value is the negative log10 of mol/L",5.27
same,GI50,"cell line 600MPE, value is the negative log10 of mol/L",4.11
same,GI50,"cell line AU565, value is the negative log10 of mol/L",5.18
same,GI50,"cell line BT474, value is the negative log10 of mol/L",3.17
same,GI50,"cell line BT483, value is the negative log10 of mol/L",4.48
same,GI50,"cell line BT549, value is the negative log10 of mol/L",3.74
same,GI50,"cell line CAMA1, value is the negative log10 of mol/L",3.51
same,GI50,"cell line HCC38, value is the negative log10 of mol/L",3.72
same,GI50,"cell line HCC70, value is the negative log10 of mol/L",4.05
same,GI50,"cell line HCC202, value is the negative log10 of mol/L",4.41
same,GI50,"cell line HCC1143, value is the negative log10 of mol/L",3.69
same,GI50,"cell line HCC1187, value is the negative log10 of mol/L",3.18
same,GI50,"cell line HCC1395, value is the negative log10 of mol/L",3.13
same,GI50,"cell line HCC1419, value is the negative log10 of mol/L",3.77
same,GI50,"cell line HCC1428, value is the negative log10 of mol/L",4.99
same,GI50,"cell line HCC1500, value is the negative log10 of mol/L",4.23
same,GI50,"cell line HCC1806, value is the negative log10 of mol/L",4.59
same,GI50,"cell line HCC1937, value is the negative log10 of mol/L",3.64
same,GI50,"cell line HCC1954, value is the negative log10 of mol/L",4.78
same,GI50,"cell line HCC2185, value is the negative log10 of mol/L",3.42
same,GI50,"cell line HCC3153, value is the negative log10 of mol/L",3.45
same,GI50,"cell line LY2, value is the negative log10 of mol/L",4.41
same,GI50,"cell line MCF7, value is the negative log10 of mol/L",4.39
same,GI50,cell line MDAMB134V,2.01
same,GI50,"cell line MDAMB157, value is the negative log10 of mol/L",3.11
same,GI50,"cell line MDAMB175V, value is the negative log10 of mol/L",3.95
same,GI50,"cell line MDAMB231, value is the negative log10 of mol/L",3.75
same,GI50,"cell line MDAMB361, value is the negative log10 of mol/L",3.84
same,GI50,cell line MDAMB436,2.97
same,GI50,"cell line MDAMB453, value is the negative log10 of mol/L",4.01
same,GI50,"cell line MDAMB468, value is the negative log10 of mol/L",3.71
same,GI50,"cell line SKBR3, value is the negative log10 of mol/L",4.48
same,GI50,"cell line SUM52PE, value is the negative log10 of mol/L",4.40
same,GI50,"cell line SUM149PT, value is the negative log10 of mol/L",4.14
same,GI50,"cell line SUM159PT, value is the negative log10 of mol/L",4.68
same,GI50,cell line SUM185PE,2.53
same,GI50,"cell line SUM1315MO, value is the negative log10 of mol/L",3.37
same,GI50,"cell line UACC812, value is the negative log10 of mol/L",4.02
same,GI50,"cell line UACC893, value is the negative log10 of mol/L",3.30
same,GI50,"cell line ZR75B, value is the negative log10 of mol/L",4.95
same,GI50,"cell line ZR751, value is the negative log10 of mol/L",4.51
Cn1cnc2c(F)c(Nc3ccc(Br)cc3Cl)c(C(=O)NOCCO)cc21 [AZD6244],GI50,"Homo sapiens, BT-20, cell line BT20, read-out: GI50 (converted)",50.1 µM
same,GI50,"Homo sapiens, BT-474, cell line BT474, read-out: GI50 (converted)",50.1 µM
same,GI50,"Homo sapiens, BT-483, cell line BT483, read-out: GI50 (converted)",50.1 µM
same,GI50,"Homo sapiens, CAMA-1, cell line CAMA1, read-out: GI50 (converted)",50.1 µM
same,GI50,"Homo sapiens, HCC38, cell line HCC38, read-out: GI50 (converted)",50.1 µM
same,GI50,"Homo sapiens, HCC1395, HCC1395 cell line, censored GI50 values, read-out: GI50 (converted)",28.8 µM
same,GI50,"Homo sapiens, HCC1395, cell line HCC1395, read-out: GI50 (converted)",28.8 µM
same,GI50,"Homo sapiens, HCC1419, HCC1419 cell line, censored GI50 values, read-out: GI50 (converted)",17.8 µM
same,GI50,"Homo sapiens, HCC1419, cell line HCC1419, read-out: GI50 (converted)",17.8 µM
same,GI50,"Homo sapiens, HCC1428, cell line HCC1428, read-out: GI50 (converted)",50.1 µM
same,GI50,"Homo sapiens, HCC1500, cell line HCC1500, read-out: GI50 (converted)",50.1 µM
same,GI50,"Homo sapiens, HCC1806, cell line HCC1806, read-out: GI50 (converted)",50.1 µM
same,GI50,"Homo sapiens, HCC1937, cell line HCC1937, read-out: GI50 (converted)",50.1 µM
same,GI50,"Homo sapiens, HCC1954, HCC1954 cell line, censored GI50 values, read-out: GI50 (converted)",1.45 µM
same,GI50,"Homo sapiens, HCC1954, cell line HCC1954, read-out: GI50 (converted)",1.45 µM
same,GI50,"Homo sapiens, MCF7, cell line MCF7, read-out: GI50 (converted)",50.1 µM
same,GI50,"Homo sapiens, MDA-MB-134-VI, MDAMB134VI cell line, censored GI50 values, read-out: GI50 (converted)",1.17 µM
same,GI50,"Homo sapiens, MDA-MB-175-VII, MDAMB175VII cell line, censored GI50 values, read-out: GI50 (converted)",2.57 µM
same,GI50,"Homo sapiens, MDA-MB-231, cell line MDAMB231, read-out: GI50 (converted)",50.1 µM
same,GI50,"Homo sapiens, MDA-MB-361, cell line MDAMB361, read-out: GI50 (converted)",50.1 µM
same,GI50,"Homo sapiens, MDA-MB-415, cell line MDAMB415, read-out: GI50 (converted)",50.1 µM
same,GI50,"Homo sapiens, MDA-MB-436, cell line MDAMB436, read-out: GI50 (converted)",50.1 µM
same,GI50,"Homo sapiens, MDA-MB-453, cell line MDAMB453, read-out: GI50 (converted)",50.1 µM
same,GI50,"Homo sapiens, MDA-MB-468, cell line MDAMB468, read-out: GI50 (converted)",50.1 µM
same,GI50,"Homo sapiens, SK-BR-3, cell line SKBR3, read-out: GI50 (converted)",50.1 µM
same,GI50,"Homo sapiens, SUM52PE, SUM52PE cell line, censored GI50 values, read-out: GI50 (converted)",9.77 µM
same,GI50,"Homo sapiens, SUM52PE, cell line SUM52PE, read-out: GI50 (converted)",9.77 µM
same,GI50,"Homo sapiens, SUM149PT, SUM149PT cell line, censored GI50 values, read-out: GI50 (converted)",0.525 µM
same,GI50,"Homo sapiens, SUM149PT, cell line SUM149PT, read-out: GI50 (converted)",0.525 µM
same,GI50,"Homo sapiens, SUM185PE, cell line SUM185PE, read-out: GI50 (converted)",50.1 µM
same,GI50,"Homo sapiens, SUM1315MO2, SUM1315MO2 cell line, censored GI50 values, read-out: GI50 (converted)",7.59 µM
same,GI50,"Homo sapiens, T47D, cell line T47D, read-out: GI50 (converted)",50.1 µM
same,GI50,"Homo sapiens, ZR-75-1, ZR751 cell line, censored GI50 values, read-out: GI50 (converted)",6.17 µM
same,GI50,"Homo sapiens, ZR-75-1, cell line ZR751, read-out: GI50 (converted)",6.17 µM
same,GI50,"Homo sapiens, ZR-75B, cell line ZR75B, read-out: GI50 (converted)",50.1 µM
same,GI50,"Homo sapiens, cell line HCC2185, read-out: GI50 (converted)",50.1 µM
same,GI50,"Homo sapiens, cell line MDAMB134V, read-out: GI50 (converted)",1.17 µM
same,GI50,"Homo sapiens, cell line MDAMB175V, read-out: GI50 (converted)",2.57 µM
same,GI50,"Homo sapiens, cell line SUM1315MO, read-out: GI50 (converted)",7.59 µM
